Measured values reported in US8552004B2, “Chemical compounds” (AstraZeneca AB, priority 2010, dated 2013).
Read-outs that look alike come from different tables or passages of the source.

Key:
ATR [1] = target: T1, ATR (Homo sapiens (Human), UniProt Q13535); assay: Cellular Assay - ATR, phosphorylation of Chk1 (Ser 345) in HT29 cells after 4NQO (Test (b)); format: cell-based; conditions: cell assay Test (b); pChk1 Ser345 in HT29 cells, 3 μM 4NQO; arithmetic mean
Excerpt: ATM and ATR have distinct and overlapping responses to DNA damage. They must participate together and responses must be co-ordinated. Both pathways may be activated by ionising radiation, however only ATR is activated by UV. Since UV treatment is not practical for use in a high throughput cell assay, the UV mimetic 4NQ0 (Sigma) was chosen to activate the ATR DNA damage response pathway.
Chk1, a downstream protein kinase of ATR, plays a key role in DNA damage checkpoint control. Activation of Chk1 involves phosphorylation of Ser317 and Ser345 (regarded as the preferential target for phosphorylation/activation by ATR). […] Compounds dose ranges were created by diluting in 100% DMSO and then further into assay media (EMEM, 10% FCS, 1% glutamine) using a Labcyte Echo Acoustic dispensing instrument. Cells were plated in 384 well Costar plates at 9×10^4 cells per ml in 40 μL EMEM, 10% FCS, 1% glutamine and grown for 24 hrs. Following addition of compound the cells were incubated for 60 minutes. A final concentration of 3 μM 4NQ0 (prepared in 100% DMSO) was then added using the Labcyte Echo and the cells incubated for a further 60mins. The cells are then fixed by adding 40 μL 3.7% v/v formaldehyde solution for 20 minutes. After removal of fix, cells were washed with PBS and permeabilised in 40 μL of PBS containing 0.1% Triton™ X-100. Cells are then washed and 15 μl primary antibody solution (pChk1 Ser345) added and the plates incubated at 4° C. overnight. […] The plates are washed and left in 40 μl PBS. Plates were then read on an ArrayS can Vti instrument to determine staining intensities, and dose responses were obtained and used to determine the IC50 values for the compounds.

ATR [2] = target: T1, ATR; assay: Enzyme Assay - ATR (Test (a)); format: biochemical; conditions: ATR from HeLa nuclear extract, GST-p53N66 substrate, 3 μM ATP, arithmetic mean
Experimental: ATR-antibody complexes were isolated from nuclear extract by incubating with protein A-Sepharose beads (Sigma, #P3476) for 1 hour and then through centrifugation to recover the beads. […] After 10 minutes with gentle shaking, ATP was added to a final concentration of 3 μM and the reaction continued at 37° C. for an additional 1 hour. […] Enhanced chemiluminescence solution (NEN, Boston, Mass.) was used to produce a signal and chemiluminescent detection was carried out via a TopCount (Packard, Meriden, Conn.) plate reader.

HT29 cells = assay: Cellular SRB assay, potentiation of carboplatin (Test (c)); format: cell-based, human; conditions: for PF50: HT29; for IC50: Homo sapiens, HT-29, HT29 cell growth, read-out: IC50
Experimental: (c) Cellular—SRB Assay The potentiation factor (PF50) for compounds is a measure of the fold increase in effect of a chemotherapeutic agent, when used in combination with an ATR inhibitor. Specifically, this is calculated as a ratio of the IC50 of control cell growth in the presence of a chemotherapeutic agent, typically carboplatin, divided by the IC50 of cell growth in the presence of this agent and the ATR inhibitor of interest. For this purpose, HT29 cells were seeded at the appropriate density to ensure exponential growth throughout the time of the assay (typically 1000-1500 cells) in each well of a 96-well plate, in a volume of 80 μl and incubated overnight at 37° C. Subsequently, cells were dosed with either DMSO vehicle, or treated with test compounds at fixed concentrations (typically 1, 0.3 & 0.1 μM). Following a one hour incubation at 37° C., the cells were further treated with a 10 point dose response of the chemotherapeutic agent, based on it's known sensitivity (typically 30-0.001 ug/ml for carboplatin). Cells were left to grow for 5 days at 37° C., after which time cell growth was assessed using the sulforhodamine B (SRB) assay (Skehan, P et al, 1990 New colorimetric cytotoxic assay for anticancer-drug screening. J. Natl. Cancer Inst. 82, 1107-1112.). Specifically, the media was removed and cells fixed with 100 μl of ice cold 10% (w/v) trichloroacetic acid. The plates were then incubated at 4° C. for 20 minutes prior to washing 4 times with water. Each well was then stained with 100 μL of 0.4% (w/v) SRB in 1% acetic acid for 20 minutes before a further 4 washes with 1% acetic acid. Plates were then dried for 2 hours at room temperature and the dye was solubilized by the addition of 100 μL Tris Base pH 8.5 into each well. Plates were shaken before measuring optical density at 564 nm (OD564). In order to calculate the PF50, the OD564 values obtained for the dose-response curve of chemotherapeutic agent were expressed as a percentage of the value obtained from cells treated with vehicle alone. Similarly, to act as a control for inclusion of the ATR inhibitor, values from the chemotherapeutic agent tested in combination with a fixed ATR inhibitor concentration were expressed as a percentage of the value obtained from cells treated with the corresponding concentration of ATR inhibitor alone. From these internally-controlled curves, IC50 values were calculated and the PF50 was determined as the ratio of these values, as described above. Compounds are compared using the PF50 value at concentrations of ATR inhibitor that show minimal growth inhibition on their own. IC50 values were calculated with XLfit (IDBS, Surrey UK) using the dose response, 4 parameter logistic model #203. Top (max) and bottom (min) curve fitting was free and not locked to 100% to 0% respectively.

[3] = potentiation factor of Carboplatin at 0.03 uM ATR inhibitor
[4] = potentiation factor of Carboplatin at 0.1 uM ATR inhibitor
[5] = potentiation factor of Carboplatin at 0.3 uM ATR inhibitor
[6] = IC50 of Carboplatin + 0.03 uM ATR inhibitor
[7] = IC50 of Carboplatin + 0.1 uM ATR inhibitor
[8] = IC50 of Carboplatin + 0.3 uM ATR inhibitor

T1 sequence (Q13535 whole entry): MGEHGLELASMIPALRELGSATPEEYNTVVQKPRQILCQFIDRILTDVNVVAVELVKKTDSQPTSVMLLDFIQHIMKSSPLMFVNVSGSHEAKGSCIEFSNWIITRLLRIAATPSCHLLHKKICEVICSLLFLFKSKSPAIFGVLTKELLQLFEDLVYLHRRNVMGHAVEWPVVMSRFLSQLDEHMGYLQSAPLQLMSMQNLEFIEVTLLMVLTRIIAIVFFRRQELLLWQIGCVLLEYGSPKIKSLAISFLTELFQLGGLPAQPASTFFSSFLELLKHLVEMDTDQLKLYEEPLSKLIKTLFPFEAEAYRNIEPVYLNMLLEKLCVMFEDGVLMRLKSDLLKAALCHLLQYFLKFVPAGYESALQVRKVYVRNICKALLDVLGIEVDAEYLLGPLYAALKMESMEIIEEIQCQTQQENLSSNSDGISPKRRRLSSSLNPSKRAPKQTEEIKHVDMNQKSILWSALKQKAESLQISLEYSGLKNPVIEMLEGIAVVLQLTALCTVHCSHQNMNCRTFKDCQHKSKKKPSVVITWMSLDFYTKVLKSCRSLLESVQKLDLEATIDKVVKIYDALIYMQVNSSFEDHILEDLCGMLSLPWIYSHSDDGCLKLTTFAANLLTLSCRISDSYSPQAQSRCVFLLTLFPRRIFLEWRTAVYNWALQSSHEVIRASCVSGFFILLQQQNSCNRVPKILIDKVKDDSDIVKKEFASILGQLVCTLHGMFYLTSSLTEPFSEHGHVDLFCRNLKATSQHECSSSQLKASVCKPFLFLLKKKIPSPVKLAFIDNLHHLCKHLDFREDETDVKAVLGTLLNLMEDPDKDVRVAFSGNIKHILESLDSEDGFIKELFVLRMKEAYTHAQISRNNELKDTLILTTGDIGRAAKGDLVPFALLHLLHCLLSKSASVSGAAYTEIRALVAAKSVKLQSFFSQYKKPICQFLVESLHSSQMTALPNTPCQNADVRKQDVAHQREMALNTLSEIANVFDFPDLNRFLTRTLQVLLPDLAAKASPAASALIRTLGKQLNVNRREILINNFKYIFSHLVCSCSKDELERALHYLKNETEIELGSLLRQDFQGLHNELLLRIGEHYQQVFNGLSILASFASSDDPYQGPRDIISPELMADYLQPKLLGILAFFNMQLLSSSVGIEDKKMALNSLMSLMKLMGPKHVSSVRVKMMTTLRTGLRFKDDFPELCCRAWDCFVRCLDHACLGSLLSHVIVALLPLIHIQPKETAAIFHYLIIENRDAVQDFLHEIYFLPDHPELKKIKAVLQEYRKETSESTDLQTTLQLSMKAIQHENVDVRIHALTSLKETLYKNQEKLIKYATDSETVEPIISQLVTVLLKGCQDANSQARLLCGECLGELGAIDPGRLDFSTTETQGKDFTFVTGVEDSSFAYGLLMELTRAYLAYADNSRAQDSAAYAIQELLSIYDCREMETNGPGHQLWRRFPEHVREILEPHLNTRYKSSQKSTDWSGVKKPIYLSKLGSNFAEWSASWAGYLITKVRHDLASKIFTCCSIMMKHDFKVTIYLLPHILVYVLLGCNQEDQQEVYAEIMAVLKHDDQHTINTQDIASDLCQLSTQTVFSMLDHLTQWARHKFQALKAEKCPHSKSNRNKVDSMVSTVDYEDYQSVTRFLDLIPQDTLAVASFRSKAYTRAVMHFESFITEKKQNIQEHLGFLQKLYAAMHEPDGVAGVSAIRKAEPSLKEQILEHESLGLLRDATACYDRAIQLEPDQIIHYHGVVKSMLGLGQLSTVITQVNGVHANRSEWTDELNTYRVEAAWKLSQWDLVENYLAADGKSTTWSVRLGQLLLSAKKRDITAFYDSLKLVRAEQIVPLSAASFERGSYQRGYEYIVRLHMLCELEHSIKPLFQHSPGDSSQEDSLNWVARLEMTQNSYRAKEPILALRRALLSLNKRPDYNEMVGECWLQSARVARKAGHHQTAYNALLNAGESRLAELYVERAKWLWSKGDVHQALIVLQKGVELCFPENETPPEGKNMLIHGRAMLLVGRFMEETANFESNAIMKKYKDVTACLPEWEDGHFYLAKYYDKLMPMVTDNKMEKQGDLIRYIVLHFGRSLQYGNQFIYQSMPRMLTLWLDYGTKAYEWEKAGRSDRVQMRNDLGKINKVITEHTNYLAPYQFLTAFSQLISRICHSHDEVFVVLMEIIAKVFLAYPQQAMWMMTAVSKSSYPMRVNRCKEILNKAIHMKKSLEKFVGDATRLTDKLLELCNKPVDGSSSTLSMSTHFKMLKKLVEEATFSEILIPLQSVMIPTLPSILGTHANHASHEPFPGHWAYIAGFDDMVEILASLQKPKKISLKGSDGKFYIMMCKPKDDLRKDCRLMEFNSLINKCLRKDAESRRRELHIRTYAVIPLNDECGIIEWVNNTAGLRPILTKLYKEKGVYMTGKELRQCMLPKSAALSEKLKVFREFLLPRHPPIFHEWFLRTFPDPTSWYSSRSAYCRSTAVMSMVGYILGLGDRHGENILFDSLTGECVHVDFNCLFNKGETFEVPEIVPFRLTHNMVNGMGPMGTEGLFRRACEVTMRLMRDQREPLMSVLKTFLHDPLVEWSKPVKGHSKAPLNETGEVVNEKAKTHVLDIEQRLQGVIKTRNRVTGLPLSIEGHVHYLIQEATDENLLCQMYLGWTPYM
T1 sequence (Q8WXE1 whole entry partner): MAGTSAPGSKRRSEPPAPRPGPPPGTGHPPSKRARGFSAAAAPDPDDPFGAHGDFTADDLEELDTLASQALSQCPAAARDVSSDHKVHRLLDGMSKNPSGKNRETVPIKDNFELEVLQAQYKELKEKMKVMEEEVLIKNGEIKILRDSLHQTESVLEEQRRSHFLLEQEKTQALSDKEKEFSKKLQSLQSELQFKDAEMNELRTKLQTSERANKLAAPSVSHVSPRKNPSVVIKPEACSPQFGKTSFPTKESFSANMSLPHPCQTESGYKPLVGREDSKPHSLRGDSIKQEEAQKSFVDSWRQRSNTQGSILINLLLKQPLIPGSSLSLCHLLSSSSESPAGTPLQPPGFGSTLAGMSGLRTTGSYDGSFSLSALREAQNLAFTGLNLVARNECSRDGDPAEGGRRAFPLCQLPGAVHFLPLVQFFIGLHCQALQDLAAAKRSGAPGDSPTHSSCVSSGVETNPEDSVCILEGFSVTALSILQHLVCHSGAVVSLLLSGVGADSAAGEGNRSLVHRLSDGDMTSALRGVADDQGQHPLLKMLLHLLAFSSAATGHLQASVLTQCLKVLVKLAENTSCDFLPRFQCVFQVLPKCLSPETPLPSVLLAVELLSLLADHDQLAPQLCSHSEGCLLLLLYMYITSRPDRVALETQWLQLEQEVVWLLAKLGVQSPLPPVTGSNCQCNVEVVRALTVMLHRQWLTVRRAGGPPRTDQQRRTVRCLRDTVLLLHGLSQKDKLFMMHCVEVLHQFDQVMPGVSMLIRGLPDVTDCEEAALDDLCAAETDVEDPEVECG

IC50 (ATR [1]) [nM]	IC50 (ATR [2]) [nM]	IC50 (HT29 cells; [6]) [µg/mL]	IC50 (HT29 cells; [7]) [µg/mL]	IC50 (HT29 cells; [8]) [µg/mL]	Compound	PF50 (HT29 cells; [3])	PF50 (HT29 cells; [4])	PF50 (HT29 cells; [5])
581	34				C[C@@H]1COCCN1c1cc(C[S@](C)(=N)=O)nc(-c2ccnc3[nH]ccc23)n1 [Example 1.01, 4-{4-[(3R)-3-Methylmorpholin-4-yl]-6-[((R)—S-methylsulfonimidoyl)methyl]pyrimidin-2-yl}-1H-pyrrolo[2,3-b]pyridine]			
		9.39	6.37	2.99	C[C@@H]1COCCN1c1cc(C2([S@](C)(=N)=O)CC2)nc(-c2ccnc3[nH]ccc23)n1 [Example 2.02, 4-{4-[(3R)-3-Methylmorpholin-4-yl]-6-[1-((R)—S-methylsulfonimidoyl)cyclopropyl]pyrimidin-2-yl}-1H-pyrrolo[2,3-b]pyridine]	1.331	1.966	4.211
		5.74	2.01	0.63	CNc1nc2ccccc2n1-c1nc(N2CCOC[C@H]2C)cc(C2([S@](C)(=N)=O)CC2)n1 [Example 2.03, N-Methyl-1-{4-[(3R)-3-methylmorpholin-4-yl]-6-[1-((R)—S-methylsulfonimidoyl)cyclopropyl]pyrimidin-2-yl}-1H-benzimidazol-2-amine]	2.057	5.887	18.721
